# Laboratory results from patent US20220030866A1, “CONJUGATES OF AUXIN ANALOGS” (The State of Israel, Ministry of Agriculture & Rural …, priority 2019, published 2022).
# Columns and labels:
# Format in all cases: in vivo
# DR5:venus marker = assay: auxin activity by DR5:venus fluorescence in Arabidopsis plants; conditions: 10 μM
# Protocol: Imaging was performed using an SP8 Leica confocal microscope including solid-state lasers producing 405, 488, 514 and 552 nm light, and hybrid or PMT detectors. Objectives were either PL APO 20×/0.75, WD 0.62 mm or PL APO 63×/1.2 WD 0.3 mm. For fluorescence measurements, the Imaris™ spot detection option (Bitplane A.G.) was used to segment nuclei and calculate the average signal intensity.
# One technique for assessing auxin activity of the 4-CPA amino acid conjugates utilized plants expressing nucleus-localized, fluorescent DR5:venus marker, the expression level of which is an indicator of intracellular auxin activity [Laskowski et al., PLoS Biol 2008, 6:e307]. Four days old seedlings grown on regular MS medium were transferred to plates containing 10 μM of the tested compounds and fluorescence was inspected by confocal microscope after 24 hours.
# In order to assess the ability of the abovementioned sodium salts to penetrate the cells and activate an auxin response, an Arabidopsis DR5-Venus model was utilized (as described hereinabove). The plants were exposed to 10 μM of each compound for 24 hour; MS medium was used as a negative control, and the related Compounds 1p, 1r and 1t were used as positive controls.
# [1] = tested on: argan (Argania spinosa) cuttings; assay: rooting of argan cuttings; conditions: after 1.5 months; compound with IBA, or IBA control
# Procedure, shortened: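 Cuttings in a commercial nursery were treated with 100 μM conjugate plus 6000 ppm IBA. Controls were talc with 8000 ppm IBA and fungicide (T-8), or 6000 ppm IBA alone.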
# [2] = tested on: avocado rootstock cuttings; assay: rooting of avocado rootstock cuttings; conditions: VC801 rootstock
# Procedure, shortened: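 Green cuttings of avocado rootstock (including hard-to-root VC801) were treated with auxin conjugates in the presence of IBA and scored for rooting.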
# cannabis clone = assay: rooting of a difficult to root cannabis clone; conditions: 6000 ppm IBA with 50 μM compound for 1 minute; 2 weeks; vs IBA alone
# Protocol: Cannabis is usually an easy to root plant. […] A relatively difficult to root cannabis clone was treated with 6000 ppm IBA or with a similar treatment combined with 50 μM of Compound 82 (4-CPA-L-Trp sodium salt) for 1 minute. Rooting was scored after 2 weeks.
# [3] = tested on: transgenic citrus rootstocks; assay: rooting of transgenic citrus rootstocks in tissue culture; conditions: 0% without compound, data not shown
# Source text: Compound 82 was also used to induce rooting of transgenic citrus rootstocks in tissue culture. It is well known that shoots created in tissue culture conditions following genetic modifications are typically difficult to root. Using Compound 82, 60% rooting was obtained, as compared to 0% without Compound 82 (data not shown).
compound,measurement,setting,value
"O=C(COc1ccc(Cl)cc1)N[C@@H](Cc1c[nH]c2ccccc12)C(=O)[O-].[Na+] [Compound 82, 4-CPA-L-Trp sodium salt]","DR5 fluorescence (auxin activity), in words",DR5:venus marker,about as active as their non-water soluble methyl esters
same,rooting in argan clone YM3,[1],80%
same,roots per cutting in argan clone YM3,[1],about 7
same,"root architecture / root length of VC801 avocado cuttings compared to IBA control, in words",[2],considerably increased root length
same,"number of roots in cannabis, in words",cannabis clone,significant increase in number of roots
same,"rooting percentage in cannabis, in words",cannabis clone,small increase in the rooting percentage
same,rooting of transgenic citrus rootstocks,[3],60%
